Data from BindingDB's records for patent US20230331683 (University of Virginia Patent Foundation, 2023).
pIC50: −log10 of the molar value.

These compounds were tested against T1, Sphingosine-1-phosphate transporter SPNS2 (Mus musculus, UniProt Q91VM4) (assay: S1P Transporter Assay).
T1 sequence (Q91VM4 whole entry): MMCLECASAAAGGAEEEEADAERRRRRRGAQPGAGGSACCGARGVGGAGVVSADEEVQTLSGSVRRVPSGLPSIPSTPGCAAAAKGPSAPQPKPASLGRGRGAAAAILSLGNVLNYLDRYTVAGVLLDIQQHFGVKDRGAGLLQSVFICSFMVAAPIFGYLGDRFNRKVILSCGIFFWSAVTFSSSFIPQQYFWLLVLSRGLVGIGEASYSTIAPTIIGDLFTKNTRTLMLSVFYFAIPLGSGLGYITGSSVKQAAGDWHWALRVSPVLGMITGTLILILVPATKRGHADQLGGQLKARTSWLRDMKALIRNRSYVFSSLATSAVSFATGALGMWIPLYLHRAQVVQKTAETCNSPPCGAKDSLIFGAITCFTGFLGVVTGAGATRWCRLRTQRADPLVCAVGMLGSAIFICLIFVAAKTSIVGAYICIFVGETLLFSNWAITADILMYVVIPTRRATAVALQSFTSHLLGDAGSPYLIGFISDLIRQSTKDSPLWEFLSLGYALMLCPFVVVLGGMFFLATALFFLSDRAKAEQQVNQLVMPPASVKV
Protocol: Transporter assays are vectorial and therefore require measurement of the transported analyte in different compartments. The S1P transporter SPNS2 only exports S1P, which obviates measuring uptake of S1P into transporter-expressing cells. Thus, transporter activity was determined by quantifying S1P release from whole cells expressing SPNS2. SPNS2 inhibitor potency was assessed using whole cell assays. HeLa cells expressing mouse SPNS2 were used to determine inhibitor potency (IC50). Cells were plated onto 12 well plates and assayed when the cell monolayers became confluent. Cell growth media (RPMI-1640 containing 10% fetal bovine serum) was replaced with 2 mL of serum-free media (RPMI-1640) containing fatty acid free bovine serum albumin (BSA) (0.2 % w/v) and supplemented with 4-deoxypyridoxine (DOP) (1 mM), NaF (2 mM), Na3VO4 (0.2 mM) to inhibit S1P degradation. Test articles (1 × 10-9 - 1 × 10^-4 M) were assayed in duplicate or triplicate. After 18 hours, media was collected, an internal recovery standard (0.005 mL of 5 × 10^-7 M deuterated (d7) S 1P in methanol) was added, the BSA was precipitated with trichloroacetic acid and the bound S1P extracted with methanol. S1P and S1P-d7 were measured by liquid chromatography mass spectrometry.

Row | SMILES | pIC50
1 | CCCCCCCCCCc1ccc2nc(N[C@H]3CCNC3)oc2c1 [US20230331683, Compound 13s] | > 5.70
2 | CCCCCCCCc1ccc2cc(NC(=O)CCCN)ccc2c1 [US20230331683, Compound 2k] | < 5.70
3 | CCCCCCCCCCc1ccc2oc(N[C@@H]3CCNC3)nc2c1 [US20230331683, Compound 13k] | > 5.70
4 | CCCCCCCCCCc1ccc(NC(=O)[C@@H]2CCN(C(=N)N)C2)cc1 [US20230331683, Compound 4b] | > 5.70
5 | CCCCCCCCCCc1ccc2oc(NC[C@@H]3CCNC3)nc2c1 [US20230331683, Compound 37] | > 5.70
6 | CCCCCCCCCCc1ccc2oc(NC[C@H]3CCNC3)nc2c1 [US20230331683, Compound 38] | > 5.70
7 | CCCCCCCCCCc1ccc2oc(N[C@H]3CCNC3)nc2c1 [US20230331683, Compound 13j] | > 5.70
8 | CCCCCCCCCCc1ccc(C(=O)N(C)[C@@H]2CCNC2)cc1 [US20230331683, Compound 32] | < 5.70
9 | CCCCCCCCCCc1ccc2nc(N[C@@H]3CCNC3)oc2c1 [US20230331683, Compound 13t] | > 5.70
10 | CCCCCCCCCCc1ccc(C(=O)N[C@H]2CCNC2)cc1 [US20230331683, Compound 26a] | > 5.70
11 | CCCCCCCCCCc1ccc(C(=S)N[C@@H]2CCNC2)cc1 [US20230331683, Compound 33] | > 5.70
12 | CCCCCCCCCCc1ccc(C(=O)N[C@@H]2CCNC2)cc1 [US20230331683, Compound 26b] | > 5.70
13 | CCCCCCCCCCc1ccc2nc(CCCN)oc2c1 [US20230331683, Compound 8e] | < 5.70
